In patent US11377416B2, “Crystalline forms of hydroxynorketamine” (SMALL PHARMA LTD, priority 2017, dated 2022):

How the values were obtained:
[1] = TG/DTA thermal analysis of crystal forms; type: physicochemical; details: heated 10° C./min from 20° C. to 300° C. under nitrogen
Description: Approximately 5 mg of material was weighed into an open aluminium pan and loaded into a simultaneous thermogravimetric/differential thermal analyser (TG/DTA) and held at room temperature. The sample was then heated at a rate of 10° C./min from 20° C. to 300° C. during which time the change in sample weight was recorded along with any differential thermal events (DTA). Nitrogen was used as the purge gas, at a flow rate of 300 cm^3/min.

[2] = comparison value for known crystal forms, conditions not given; cited from earlier work
[3] = pKa analysis, potentiometric (pH-metric) titration; type: physicochemical; details: pH-metric triple titration, methanol-water co-solvent, pH 2.0-12.0, Yasuda-Shedlovsky extrapolation
Description: The sample pKa was determined using the potentiometric (pH-metric) technique following attempts to determine pKa via UV spectroscopic techniques.
UV-metric: The sample was initially titrated in a fast-UV triple titration between pH 2.0-12.0 at concentrations of 31-19 μM, under aqueous conditions. No evidence of any sample ionisation within the investigated pH range was inferred from the spectroscopic data obtained, meaning that any ionisable groups were remote from chromophores. Therefore, the sample was analysed using the pH-metric method.
pH-metric: The sample was subsequently titrated using the potentiometric technique to determine the non-UV active pKas. A triple titration was carried out under methanol-water co-solvent conditions from pH 2.0-12.0 at concentrations of 0.9-0.6 mM (the methanol mixing ratio varied from 53.0 to 33.3% w/w). No precipitation of the sample from solution was observed so the pKa was determined from the potentiometric data collected, by Yasuda-Shedlovsky extrapolation of the individual results obtained. pKa of 2R,6R-hydroxynorketamine was calculated as 6.51+/−0.02.

| Compound | temperature above which the material degrades (TG/DTA) [1] | further results |
| --- | --- | --- |
| NC1(c2ccccc2Cl)CCCC(O)C1=O.O=C(O)CC(O)(CC(=O)O)C(=O)O (stereo not drawn) [2R,6R-Hydroxynorketamine Citrate] | above 157 °C | – |
| NC1(c2ccccc2Cl)CCCC(O)C1=O.O=C(O)C=CC(=O)O.O=C(O)C=CC(=O)O (stereo not drawn) [2R,6R-Hydroxynorketamine Difumarate, 2R,6R-hydroxynorketamine difumarate] | above 159 °C | – |
| NC1(c2ccccc2Cl)CCCC(O)C1=O.O=C(O)CC(O)C(=O)O [2R,6R-Hydroxynorketamine L-Malate, 2R,6R-hydroxynorketamine L-malate] | above 150 °C | – |
| N[C@@]1(c2ccccc2Cl)CCC[C@@H](O)C1=O.O=C(O)C(O)C(O)C(=O)O [2R,6R-Hydroxynorketamine L-Tartrate, 2R,6R-hydroxynorketamine L-tartrate] | above 157 °C | – |
| N[C@@]1(c2ccccc2Cl)CCC[C@@H](O)C1=O.O=C1CC[C@@H](C(=O)O)N1 [2R,6R-hydroxynorketamine L-pyroglutamate] | above 159 °C | – |
| Cl.N[C@@]1(c2ccccc2Cl)CCC[C@@H](O)C1=O [2R,6R-hydroxynorketamine hydrochloride] | – | aqueous solubility of known crystal forms [2]: 25 mg/mL |
| N[C@@]1(c2ccccc2Cl)CCC[C@@H](O)C1=O [2R,6R-hydroxynorketamine, 2R,6R-2-(2-Chlorophenyl)-2-(amino)-6-hydroxycyclohexanone] | – | pKa [3]: 6.51+/−0.02 |
